Data published in patent US20260092062A1, “PYRIDINE CARBOXAMIDE COMPOUNDS AND THEIR USE IN TREATING MEDICAL CONDITIONS” (Rectify Pharmaceuticals, Inc., priority 2022, published 2026).

Biological target: T1, E297G variant of human ABCB11 (Homo sapiens, UniProt O95342, E297G)
T1 construct: expressed in transfected cells
Test: ABCB11 E297G expression assay (HiBit lytic luminescence) in HEK-293/E297G cells
Format: cell-based
Details: increase in expression of ABCB11 E297G, 24 hours treatment, top concentration 25 μM, class also includes Emax criterion, read-out: BSEP EC50
Source text: To assess activity against ABCB11 E297G, the compounds were screened in an assay measuring protein expression, using cells transfected with cDNA encoding HiBit-tagged ABCB11 E297G.
Here we describe an assay for measuring the expression of the E297G variant of human ABCB11 (henceforth referred to as ABCB11 E297G) and the use of this assay to measure the efficacy of compounds to increase the expression of ABCB11 E297G. The assay was designed to characterize the efficacy and potency of compounds to increase the expression of ABCB11 E297G by calculating an Emax and EC50 value. HEK-293 cells stably expressing E297G (HEK-293/E297G cells) were used for this assay and were maintained at 37° C. (5% CO2, humidified) in Eagle's Minimum Essential Medium supplemented with 10% fetal bovine serum and 1% Glutamine. For the assay, the HEK-293/E297G cells were seeded in black/transparent-bottom 384-well plates at 20,000 cells/well in 22.5 μl Opti-MEM (Thermofisher, product #11058021) media supplemented with 2.7% of fetal bovine serum (Gibco, product #16000044) and allowed to settle for 4 hours at 37° C. (5% CO2, humidified). Compound serial dilutions are prepared in Opti-MEM as four times (4×) the final concentration and using a dilution factor of 2.15. After the four h incubation period, 7.5 μL of the 4× dilutions are transferred to the assay plate.
Dose response curves include eight doses with the top final concentration at 25 μM in 0.75% DMSO. Liquid handling is performed in a robotic device equipped with a 384-tip head (Analytik Jena—CyBio Vario). After addition of compound treatment, cells are incubated for 24 hours at 37° C. (5% CO2, humidified). After the 24-hour treatment, plates are allowed to equilibrate for 30 minutes at room temperature. Using the Analytik Jena—CyBio Vario instrument, the volume of each well is reduced to 15 μl and 15 μl of HiBit lytic assay reagent (Promega, product #N3040), which is prepared according to manufacturer's instructions, is added back to each well. The plates are incubated at room temperature for additional 30 minutes and luminescent signal is acquired using a Hamamatsu FDSS 7000 EX plate-reader (20 reads, exposure time 0.2 seconds, gain 200).
Results are presented below in Table 3 for ABCB11 E297G.

T1 sequence (O95342 whole entry E297G): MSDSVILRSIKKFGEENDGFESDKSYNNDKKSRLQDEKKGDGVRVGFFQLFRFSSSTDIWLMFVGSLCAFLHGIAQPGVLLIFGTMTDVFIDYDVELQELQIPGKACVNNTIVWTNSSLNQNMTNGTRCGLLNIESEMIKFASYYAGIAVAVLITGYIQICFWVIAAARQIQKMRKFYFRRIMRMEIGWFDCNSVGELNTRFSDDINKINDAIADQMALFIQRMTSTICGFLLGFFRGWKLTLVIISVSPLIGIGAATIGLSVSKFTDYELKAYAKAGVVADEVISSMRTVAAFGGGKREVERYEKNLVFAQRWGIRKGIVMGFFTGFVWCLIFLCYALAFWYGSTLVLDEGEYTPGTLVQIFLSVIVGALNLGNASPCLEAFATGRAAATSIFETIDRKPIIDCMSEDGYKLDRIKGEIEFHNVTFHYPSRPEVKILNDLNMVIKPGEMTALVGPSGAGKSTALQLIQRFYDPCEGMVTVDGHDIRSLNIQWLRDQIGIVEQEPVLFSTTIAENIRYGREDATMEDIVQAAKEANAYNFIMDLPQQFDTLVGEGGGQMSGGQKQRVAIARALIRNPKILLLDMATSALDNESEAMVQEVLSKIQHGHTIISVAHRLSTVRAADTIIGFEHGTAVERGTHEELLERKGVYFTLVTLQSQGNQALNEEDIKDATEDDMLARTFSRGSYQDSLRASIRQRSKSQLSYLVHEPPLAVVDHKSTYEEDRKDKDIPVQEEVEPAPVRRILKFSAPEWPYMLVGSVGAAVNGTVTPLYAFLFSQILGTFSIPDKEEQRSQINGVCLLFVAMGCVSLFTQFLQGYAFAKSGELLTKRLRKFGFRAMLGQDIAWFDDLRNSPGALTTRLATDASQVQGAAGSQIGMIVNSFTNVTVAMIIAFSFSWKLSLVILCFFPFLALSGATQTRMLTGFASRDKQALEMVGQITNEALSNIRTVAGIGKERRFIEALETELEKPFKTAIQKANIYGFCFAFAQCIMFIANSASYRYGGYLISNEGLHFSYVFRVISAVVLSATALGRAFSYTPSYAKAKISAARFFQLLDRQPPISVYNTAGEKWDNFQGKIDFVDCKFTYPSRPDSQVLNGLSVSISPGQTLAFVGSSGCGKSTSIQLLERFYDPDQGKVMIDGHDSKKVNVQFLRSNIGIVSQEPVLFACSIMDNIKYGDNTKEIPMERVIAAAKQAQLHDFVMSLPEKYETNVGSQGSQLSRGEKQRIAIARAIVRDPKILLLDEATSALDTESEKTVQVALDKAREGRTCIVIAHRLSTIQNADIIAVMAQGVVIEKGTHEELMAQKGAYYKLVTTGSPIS

Row | SMILES | EC50 [µM]
1 | Cc1ccc(NC(=O)c2cc3ccc(F)cc3n2C)nc1-c1cn(C)c(=O)c2[nH]ccc12 [Compound I-14] | > 25
2 | Cc1ccc(NC(=O)C2CCN(c3ccccc3)CC2)nc1-c1cn(C)c(=O)c2[nH]ccc12 [Compound I-11] | < 2.5
3 | Cc1ccc(NC(=O)c2cnc(-c3ccccn3)nc2)nc1-c1cn(C)c(=O)c2[nH]ccc12 [Compound I-1] | 2.5 to 10
4 | Cc1ccc(NC(=O)C2CCN(c3ccccn3)CC2)nc1-c1cn(C)c(=O)c2[nH]ccc12 [Compound I-12] | 2.5 to 10
5 | Cc1ccc(NC(=O)c2ccc3c(c2)OCCN3C)nc1-c1cn(C)c(=O)c2[nH]ccc12 [Compound I-15] | 2.5 to 10
6 | Cc1ccc(NC(=O)c2ccc3cnccc3c2)nc1-c1cn(C)c(=O)c2[nH]ccc12 [Compound I-26] | 2.5 to 10
7 | Cc1ccc(NC(=O)c2ccc3c(c2)n(C)c(=O)n3C)nc1-c1cn(C)c(=O)c2[nH]ccc12 [Compound I-18] | > 25
8 | Cc1ccc(NC(=O)c2cc(CC(C)C)nn2C)nc1-c1cn(C)c(=O)c2[nH]ccc12 [Compound I-8] | < 2.5
9 | Cc1ccc(NC(=O)c2nc3c(s2)CN(C)CC3)nc1-c1cn(C)c(=O)c2[nH]ccc12 [Compound I-16] | 10 to 25
10 | Cc1ccc(NC(=O)c2cnn(C3CCOCC3)c2)nc1-c1cn(C)c(=O)c2[nH]ccc12 [Compound I-21] | 10 to 25
11 | Cc1ccc(NC(=O)c2ccc(C(F)(F)F)nc2)nc1-c1cn(C)c(=O)c2[nH]ccc12 [Compound I-5] | 2.5 to 10
12 | Cc1cnc2ncc(C(=O)Nc3ccc(C)c(-c4cn(C)c(=O)c5[nH]ccc45)n3)n2c1 [Compound I-10] | > 25
13 | Cc1ccc(NC(=O)c2nc(-c3ccccc3)ns2)nc1-c1cn(C)c(=O)c2[nH]ccc12 [Compound I-4] | > 25
14 | Cc1ccc(NC(=O)c2coc(N3CCOCC3)n2)nc1-c1cn(C)c(=O)c2[nH]ccc12 [Compound I-22] | 2.5 to 10
15 | Cc1ccc(NC(=O)C2CCCc3ccccc32)nc1-c1cn(C)c(=O)c2[nH]ccc12 (centres unmarked) [Compound I-176] | < 2.5
16 | Cc1ccc(NC(=O)C2CCc3ccccc32)nc1-c1cn(C)c(=O)c2[nH]ccc12 (centres unmarked) [Compound I-177] | 2.5 to 10
17 | Cc1ccc(NC(=O)c2cnc(C(F)(F)F)s2)nc1-c1cn(C)c(=O)c2[nH]ccc12 [Compound I-7] | > 25
18 | Cc1ccc(NC(=O)c2cccc3c2OC(C)(C)CC3)nc1-c1cn(C)c(=O)c2[nH]ccc12 [Compound I-6] | 2.5 to 10
19 | Cc1ccc(NC(=O)C2CCC(F)(F)C2)nc1-c1cn(C)c(=O)c2[nH]ccc12 (centres unmarked) [Compound I-17] | < 2.5
20 | Cc1ccc(NC(=O)c2cnn(-c3ccccc3F)c2)nc1-c1cn(C)c(=O)c2[nH]ccc12 [Compound I-3] | > 25
21 | Cc1ccc(NC(=O)c2cc3n(n2)CCCC3)nc1-c1cn(C)c(=O)c2[nH]ccc12 [Compound I-27] | 2.5 to 10
22 | Cc1ccc(NC(=O)c2cc(-c3ccccc3)no2)nc1-c1cn(C)c(=O)c2[nH]ccc12 [Compound I-19] | > 25
23 | Cc1ccc(NC(=O)C2CCN(S(C)(=O)=O)CC2)nc1-c1cn(C)c(=O)c2[nH]ccc12 [Compound I-13] | 10 to 25
24 | CCOC(=O)N1CCC(C(=O)Nc2ccc(C)c(-c3cn(C)c(=O)c4[nH]ccc34)n2)CC1 [Compound I-25] | 2.5 to 10
25 | Cc1ccc(NC(=O)c2ccc3c(ccn3C)c2)nc1-c1cn(C)c(=O)c2[nH]ccc12 [Compound I-20] | 2.5 to 10
26 | Cc1ccc(NC(=O)c2ccc(-n3cccn3)cc2)nc1-c1cn(C)c(=O)c2[nH]ccc12 [Compound I-23] | > 25
27 | Cc1ccc(NC(=O)[C@@H]2CCCN2C(C)C)nc1-c1cn(C)c(=O)c2[nH]ccc12 [Compound I-2] | 2.5 to 10
28 | Cc1ccc(NC(=O)c2ccncn2)nc1-c1cn(C)c(=O)c2[nH]ccc12 [Compound I-24] | 10 to 25
29 | Cc1ccc(NC(=O)c2cnn(-c3ccccc3)c2C)nc1-c1cn(C)c(=O)c2[nH]ccc12 [Compound I-9] | > 25
